This note sets out measurements from publication PMC11489226 (Archives of Toxicology, 2024).

Where “and” joins values, the source holds several entries; their conditions need not be identical. Equal values may be shown once.

For one series, the target named is CYP2E1 (Homo sapiens, UniProt P05181). Kind of series: Metabolism in transgenic HEK293 cells expressing CYP2E1. Particulars: 20 µM parent PCB, 24 h, supernatant. As to the method:
(§1) For the generation of transgenic cell lines, we used semi-adherent HEK293 cells (DSMZ, ACC305, human embryonic kidney cells) which were cultured on a daily basis in DMEM medium supplemented with 10% (FCS) and 1% penicillin/streptomycin. In a first step CYP1A2, CYP2C8, CYP2C9, CYP3A4, CYP2A6, and CYP2E1 cDNA were cloned into the plasmid pcDNATM3.1/V5-His TOPO® using human liver RNA as a template and using the following primers: CYP1A2 for5′-[…]-3′, CYP1A2 rev 5′-[…]-3′; CYP2C8 for 5′-[…]-3′, CYP2C8 rev 5′-[…]-3′; CYP2C9 for 5′-[…]-3′, CYP2C9 rev 5′-[…]-3′; CYP3A4 for 5′-[…]-3′, CYP3A4 rev 5′-[…]-3′, CYP2A6 for 5′-[…]-3′, CYP2A6 rev 5′-[…]-3′; CYP2E1 for 5′-[…]-3′, CYP2E1 rev 5′-[…]-3′. Final constructs were verified with Sanger DNA sequencing and restriction digestion. For transfection, 3 × 10^6 HEK293 cells were pre-incubated in a 10 cm dish in DMEM medium with 10% FCS, but without antibiotics, for 18 to 24 h. When the cells reached approximately 70% confluency, they were transfected using TransIT-LT1 transfection reagent (Biozol, Eiching, Germany). The TransIT-LT1 reagent was warmed to room temperature and vortexed. 1.63 mL Opti-MEM, 16.25 µL plasmid DNA (1 µg/µL), and 48.75 µL TransIT-LT1 reagent were mixed and incubated for 15 to 30 min. The mixture was then added dropwise to the medium of the cells, and the cells were incubated again at 37 °C and 5% CO2. After 24 h, the medium was replaced with standard medium and geneticin was added for selection (1 mg/mL). Cells were selected for 6–8 weeks in bulk culture, and single cell clones were obtained subsequently by limiting dilution. Each clone was checked for insertion by PCR using genomic DNA as a template.
(§2) Parallel samples were run without the addition of PCBs. At a confluence of 80%, PCBs (20 μM each, dissolved in ethanol) were added and cells were incubated for 24 h before harvest of supernatants. Supernatants were diluted 1:2 with 80 μL acetate buffer 0.1 M (pH = 5.3). 100 μL of this dilution were further incubated with 100 μL of ammonium acetate buffer 0.1 M (pH = 5.3) and 5 μL of β-Glucuronidase/Arylsulfatase enzyme overnight in a drying oven at 37 °C for enzymatic hydrolysis to release conjugated compounds. 50 μL of a mix of internal standards (10 ng/mL) and 600 μL of methanol were added to the samples, then mixed by vortexing for 1 min and centrifuged for 10 min at 3400g. The individual supernatants were transferred to glass LC vials and evaporated to approximately 50 μL at 45 °C under a gentle stream of nitrogen. Finally, 0.1 mol/ L ammonium acetate buffer was added to a final volume of 100 μL and then transferred to an insert for analysis.
(§3) HEK293 cells overexpressing the respective CYP enzymes were seeded onto 6-well plates and were treated with or without 10 µM of the respective probe drug in DMEM medium for 24 hours at 37 °C and 5 % CO2. After incubation 200 µL DMEM were collected, cells were washed with PBS and adherent cells were lysed in 500 µL methanol for 20 minutes. Analytes were measured by LC-MS/MS either in methanol cell lysates or in DMEM supernatant.
(§4) 50 µL of DMEM samples were protein precipitated by adding 200 µL of methanol and were centrifuged for 20 min, 17,000 g and 4°C. Supernatants were diluted in water or 40 % methanol according to dilution factor. Methanol cell lysates were diluted ½ with water and centrifuged for 20 min, 17,000 g and 4°C. 5 µL of the processed samples were injected for LC-MS analysis.

Another series has as its target CYP3A4 (Homo sapiens, UniProt P08684). Kind of series: Metabolism in transgenic HEK293 cells expressing CYP3A4. Particulars: 24 h; for Quantification of metabolites generated from PCB28, 52, and 101: 20 µM parent PCB, supernatant. As for the experimental part: as §1, §2, §3, §4
The target of a further series is T1, CYP2A6 (Homo sapiens, UniProt P11509).
T1 sequence (P11509 1-494): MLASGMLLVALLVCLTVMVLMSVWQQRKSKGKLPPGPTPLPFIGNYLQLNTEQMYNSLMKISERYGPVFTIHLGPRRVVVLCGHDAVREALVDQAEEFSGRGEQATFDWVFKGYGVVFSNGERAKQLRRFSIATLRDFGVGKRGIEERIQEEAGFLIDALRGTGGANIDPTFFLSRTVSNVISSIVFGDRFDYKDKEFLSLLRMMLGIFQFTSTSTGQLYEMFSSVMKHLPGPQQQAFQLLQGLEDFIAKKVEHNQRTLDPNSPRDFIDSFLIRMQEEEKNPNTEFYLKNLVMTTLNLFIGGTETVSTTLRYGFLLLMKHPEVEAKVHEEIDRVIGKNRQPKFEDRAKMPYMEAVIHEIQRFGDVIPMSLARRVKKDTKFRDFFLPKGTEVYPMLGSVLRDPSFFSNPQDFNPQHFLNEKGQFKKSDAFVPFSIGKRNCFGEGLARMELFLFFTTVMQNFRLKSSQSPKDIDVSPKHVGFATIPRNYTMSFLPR
As to the kind of experiment: Metabolism in transgenic HEK293 cells expressing CYP2A6. The class given is in vitro ADME. Also on record: V5-His (vector-encoded) (C); expressed in transfected cells. Particulars: 24 h; for Quantification of metabolites generated from PCB28, 52, and 101 / Metabolite concentration formed, range across cell clones: 20 µM parent PCB; for Quantification of metabolites generated from PCB28, 52, and 101: supernatant; for Metabolite concentration formed, range across cell clones: HEK293CYP2A6 cell lines. As to the method:
as §1, §2, §3, §4

The nature of series [1]: PCB concentrations in plasma of HELPcB participants (2010). Particulars: sample of 2010; for concentration at 2010 calendar year / concentration at 2010 calendar year of sampling: human, plasma, other: occupational exposure. Type of series: in vivo, human.

Chain of CYP2E1 (P05181 whole entry): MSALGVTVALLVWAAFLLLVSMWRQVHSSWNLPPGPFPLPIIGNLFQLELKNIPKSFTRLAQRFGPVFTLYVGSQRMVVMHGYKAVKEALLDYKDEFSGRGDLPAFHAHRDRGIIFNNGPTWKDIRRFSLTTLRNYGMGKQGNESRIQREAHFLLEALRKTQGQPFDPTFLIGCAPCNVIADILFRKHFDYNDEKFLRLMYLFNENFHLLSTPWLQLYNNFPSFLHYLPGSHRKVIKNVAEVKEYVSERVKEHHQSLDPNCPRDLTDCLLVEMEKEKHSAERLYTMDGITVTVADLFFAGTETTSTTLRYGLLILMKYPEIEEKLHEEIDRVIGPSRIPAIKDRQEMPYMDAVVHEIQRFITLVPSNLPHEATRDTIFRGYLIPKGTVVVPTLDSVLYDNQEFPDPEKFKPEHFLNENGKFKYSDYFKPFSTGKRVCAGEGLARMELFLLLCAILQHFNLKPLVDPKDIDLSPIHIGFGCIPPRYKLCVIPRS
Chain of CYP3A4 (P08684 whole entry): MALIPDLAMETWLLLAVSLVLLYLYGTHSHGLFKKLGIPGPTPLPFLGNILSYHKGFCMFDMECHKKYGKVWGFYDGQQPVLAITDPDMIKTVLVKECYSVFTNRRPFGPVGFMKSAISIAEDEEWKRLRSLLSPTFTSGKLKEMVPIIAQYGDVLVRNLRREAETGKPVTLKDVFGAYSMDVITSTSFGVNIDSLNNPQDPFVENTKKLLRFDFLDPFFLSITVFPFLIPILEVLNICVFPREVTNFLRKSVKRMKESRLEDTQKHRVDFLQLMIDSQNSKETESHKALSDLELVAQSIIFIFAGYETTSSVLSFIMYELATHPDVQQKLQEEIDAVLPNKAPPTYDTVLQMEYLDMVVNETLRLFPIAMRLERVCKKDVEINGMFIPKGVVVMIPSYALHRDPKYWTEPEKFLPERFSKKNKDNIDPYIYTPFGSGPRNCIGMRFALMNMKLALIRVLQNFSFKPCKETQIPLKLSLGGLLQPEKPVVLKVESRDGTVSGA

With `Oc1cc(Cl)cc(-c2cc(Cl)c(Cl)cc2Cl)c1Cl` [3´-OHCB101, 2,2′,4,5,5′-pentachloro-3′-biphenylol], the “Quantification of metabolites generated from PCB28, 52, and 101” value (from here on “Quantification of metabolites generated”) on CYP2E1 (CYP2E1 Clone B4) was “<LOQ”; on CYP2E1 (CYP2E1 Clone B5), “<LOQ”; at CYP2E1 (CYP2E1 Clone E6), “<LOQ”; on CYP3A4 (CYP3A4 Clone D10) it was “<LOQ”; on CYP3A4 (CYP3A4 Clone E6) it was “<LOQ”; on CYP2A6 (CYP2A6 Clone B7), 39,4 nM. Also, the figures for the “Quantification of metabolites generated” value on CYP2A6 (CYP2A6 Clone C4) and at CYP2A6 (CYP2A6 Clone C5) were 24,09 nM and 4,2 nM, respectively. In addition, the “Metabolite concentration formed, range across cell clones” value at CYP2A6 is 1.44–13.5 µg/L and 4.2–39.4 nM.
As to `Oc1cc(Cl)c(-c2cc(Cl)c(Cl)cc2Cl)cc1Cl` [4´-OHCB101, 2,2′,4,5,5′-Pentachloro-4′-biphenylol], the “Quantification of metabolites generated” value at CYP2E1 (CYP2E1 Clone B4) is 3,84 nM; on CYP2E1 (CYP2E1 Clone B5), 4,02 nM; on CYP2E1 (CYP2E1 Clone E6), 5,08 nM; at CYP3A4 (CYP3A4 Clone D10), “<LOQ”; on CYP3A4 (CYP3A4 Clone E6), “<LOQ”; at CYP2A6 (CYP2A6 Clone B7), 441,30 nM. The “Quantification of metabolites generated” value on CYP2A6 (CYP2A6 Clone C4) is reported as 272,55 nM; at CYP2A6 (CYP2A6 Clone C5), 55,93 nM. Besides, the “Metabolite concentration formed, range across cell clones” value at CYP2A6 was 19.15- 151.1 µg/L and 55.93–441.3 nM.
Turning to `O=c1ccc2ccccc2o1` [Coumarin, reference compound], on CYP2A6 (HEK293CYP2A6, 10 µM substrate), the Conversion product was 7-hydroxycoumarin.
Consider `Cc1ncc2n1-c1ccc(Cl)cc1C(c1ccccc1F)=NC2` [Midazolam, reference compound], for which, at CYP3A4 (HEK293CYP3A4, 10 µM substrate), the Conversion product is on record as 1-hydroxy-midazolam.
In the case of `Clc1cc(Cl)c(-c2ccc(Cl)c(Cl)c2Cl)cc1Cl` [PCB138], the Concentration in plasma in series [1] (HELPcB participant AD) was 0.984 ng/mL; in series [1] (HELPcB participant AE), 0.773 ng/mL; in series [1] (HELPcB participant eight), 0.358 ng/mL; in series [1] (HELPcB participant five) it was 1.886 ng/mL; in series [1] (HELPcB participant four), 0.610 ng/mL; in series [1] (HELPcB participant one) it was 2.083 ng/mL. The Concentration in plasma turned out to be 0.738 ng/mL in series [1] (HELPcB participant seven), 14.883 ng/mL in series [1] (HELPcB participant six), 1.047 ng/mL in series [1] (HELPcB participant three) and 0.718 ng/mL in series [1] (HELPcB participant two).
`Clc1cc(Cl)c(-c2cc(Cl)c(Cl)cc2Cl)cc1Cl` [PCB153]: the Concentration in plasma in series [1] (HELPcB participant AD) amounted to 1.397 ng/mL; in series [1] (HELPcB participant AE), 1.227 ng/mL; in series [1] (HELPcB participant eight), 0.59 ng/mL; in series [1] (HELPcB participant five), 1.765 ng/mL; in series [1] (HELPcB participant four), 0.855 ng/mL; in series [1] (HELPcB participant one), 1.907 ng/mL. Further, the Concentration in plasma turned out to be 1.081 ng/mL in series [1] (HELPcB participant seven), 15.630 ng/mL in series [1] (HELPcB participant six), 1.254 ng/mL in series [1] (HELPcB participant three) and 0.945 ng/mL in series [1] (HELPcB participant two).
As for `Clc1cc(Cl)c(-c2cc(Cl)c(Cl)c(Cl)c2Cl)cc1Cl` [PCB180], the concentration at 2010 calendar year in series [1] (HELPcB participant AD) stood at 1.16 ng/mL; in series [1] (HELPcB participant AE), 1.28 ng/mL; in series [1] (HELPcB participant eight), 0.377 ng/mL; in series [1] (HELPcB participant five) it was 0.951 ng/mL; in series [1] (HELPcB participant four), 0.508 ng/mL; in series [1] (HELPcB participant seven) it was 0.934 ng/mL. The concentration at 2010 calendar year in series [1] (HELPcB participant six) stood at 8.85 ng/mL; in series [1] (HELPcB participant three), 0.95 ng/mL. Besides, the concentration at 2010 calendar year of sampling in series [1] (HELPcB participant one) was found to be 0.998 ng/mL; in series [1] (HELPcB participant two), 0.612 ng/mL.
